Reference: PubChem BioAssay (NCI)
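Tested at 5 concentrations; 48 h exposure; 96-well plates; endpoints linearly interpolated, else capped at highest concentration. GI50 = concentration required for 50% inhibition of growth. Definition used: TGI = concentration required for complete inhibition of growth.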

Tests used:
Assay in all cases: NCI tumour cell line growth inhibition, 48 h
NCI-H23 lung = tested on: NCI-H23 lung
NCI-H460 lung = tested on: NCI-H460 lung
NCI-H522 lung = tested on: NCI-H522 lung
NCI/ADR-RES ovarian = tested on: NCI/ADR-RES ovarian
OVCAR-3 ovarian = tested on: OVCAR-3 ovarian
OVCAR-4 ovarian = tested on: OVCAR-4 ovarian
OVCAR-5 ovarian = tested on: OVCAR-5 ovarian
OVCAR-8 ovarian = tested on: OVCAR-8 ovarian
PC-3 prostate = tested on: PC-3 prostate
RPMI-8226 leukemia = tested on: RPMI-8226 leukemia
RXF 393 renal = tested on: RXF 393 renal
SF-268 CNS = tested on: SF-268 CNS
SF-295 CNS = tested on: SF-295 CNS
SF-539 CNS = tested on: SF-539 CNS
SK-MEL-2 melanoma = tested on: SK-MEL-2 melanoma
SK-MEL-28 melanoma = tested on: SK-MEL-28 melanoma
SK-MEL-5 melanoma = tested on: SK-MEL-5 melanoma
SK-OV-3 ovarian = tested on: SK-OV-3 ovarian
SN12C renal = tested on: SN12C renal
SNB-19 CNS = tested on: SNB-19 CNS
SNB-75 CNS = tested on: SNB-75 CNS
SR leukemia = tested on: SR leukemia
SW-620 colon = tested on: SW-620 colon
T-47D breast = tested on: T-47D breast
TK-10 renal = tested on: TK-10 renal
U251 CNS = tested on: U251 CNS
UACC-257 melanoma = tested on: UACC-257 melanoma
UACC-62 melanoma = tested on: UACC-62 melanoma
UO-31 renal = tested on: UO-31 renal

Structure (SMILES): CCc1c2c(nc3ccc(OC(=O)NCc4ccc(B5OC(C)(C)C(C)(C)O5)cc4)cc13)-c1cc3c(c(=O)n1C2)COC(=O)[C@]3(O)CC
- GI50 (NCI-H23 lung): 18.1 nM
- TGI (NCI-H23 lung): 771 nM
- GI50 (NCI-H460 lung): 14.1 nM
- TGI (NCI-H460 lung): 343 nM
- GI50 (NCI-H522 lung): 16.7 nM
- TGI (NCI-H522 lung): 3870 nM
- GI50 (NCI/ADR-RES ovarian): 51.1 nM
- TGI (NCI/ADR-RES ovarian): > 100000 nM
- GI50 (OVCAR-3 ovarian): 148 nM
- TGI (OVCAR-3 ovarian): 3200 nM
- GI50 (OVCAR-4 ovarian): 392 nM
- TGI (OVCAR-4 ovarian): 63700 nM
- GI50 (OVCAR-5 ovarian): 287 nM
- TGI (OVCAR-5 ovarian): > 24300 nM
- GI50 (OVCAR-8 ovarian): 22.8 nM
- TGI (OVCAR-8 ovarian): > 100000 nM
- GI50 (PC-3 prostate): 144 nM
- TGI (PC-3 prostate): > 100000 nM
- GI50 (RPMI-8226 leukemia): 270 nM
- TGI (RPMI-8226 leukemia): 3480 nM
- GI50 (RXF 393 renal): 27.9 nM
- TGI (RXF 393 renal): 322 nM
- GI50 (SF-268 CNS): < 10 nM
- TGI (SF-268 CNS): 4040 nM
- GI50 (SF-295 CNS): 16 nM
- TGI (SF-295 CNS): 3400 nM
- GI50 (SF-539 CNS): < 10 nM
- TGI (SF-539 CNS): 77.1 nM
- GI50 (SK-MEL-2 melanoma): 790 nM
- TGI (SK-MEL-2 melanoma): > 22600 nM
- GI50 (SK-MEL-28 melanoma): 577 nM
- TGI (SK-MEL-28 melanoma): 8900 nM
- GI50 (SK-MEL-5 melanoma): 35.6 nM
- TGI (SK-MEL-5 melanoma): 301 nM
- GI50 (SK-OV-3 ovarian): 28.6 nM
- TGI (SK-OV-3 ovarian): 8180 nM
- GI50 (SN12C renal): < 10 nM
- TGI (SN12C renal): > 100000 nM
- GI50 (SNB-19 CNS): < 10 nM
- TGI (SNB-19 CNS): > 100000 nM
- GI50 (SNB-75 CNS): 19.9 nM
- TGI (SNB-75 CNS): 448 nM
- GI50 (SR leukemia): < 10 nM
- TGI (SR leukemia): > 100000 nM
- GI50 (SW-620 colon): 22.7 nM
- GI50 (T-47D breast): < 10 nM
- TGI (T-47D breast): > 100000 nM
- GI50 (TK-10 renal): 1600 nM
- TGI (TK-10 renal): > 91400 nM
- GI50 (U251 CNS): < 10 nM
- TGI (U251 CNS): > 100000 nM
- GI50 (UACC-257 melanoma): 226 nM
- TGI (UACC-257 melanoma): 3360 nM
- GI50 (UACC-62 melanoma): < 10 nM
- TGI (UACC-62 melanoma): 220 nM
- GI50 (UO-31 renal): 27.4 nM
- TGI (UO-31 renal): 294 nM
